Tested on: electron transport system of SMP (sub-mitochondrial particle)
Assay: pH change caused by SMP after contact with the sample and addition of NADH as external electron donor
Type: biochemical
Details: for pH change rate: control about 0.17 per minute
Procedure: First of all, a large quantity of SMPs were prepared by sonicating mitochondria.
Thereafter, the test tubes 1 to 3 were prepared, wherein 10 ml of a 2 mM KCl solution (control solution) was added to the test tube 1, 10 ml of 10% ethanol dissolved in the control solution was added to the test tube 2, and 10 ml of 20% ethanol dissolved in the same was added to the test tube 3. SMPs prepared above were added to each test tube at a final concentration of 1.4 mg/ml.
Next, 0.1 mM of NADH that acts as an external electron donor was added to each test tube at the same time, and the pH change in each test tube was measured for 5 minutes by using a pH meter.
In order to examine whether the method of the present invention is sensitive to only a toxic substance, the experiment was carried out according to the same method as described in Example 1 except that the sample prepared by dissolving 20% sorbitol in a 2 mM KCl solution was used.

With `CCO` [ethanol] the pH change rate (10% ethanol (FIG. 5)) was “lower than 0.1 per minute”, the “pH increase for 5 minutes” value (10% ethanol in 2 mM KCl, SMP 1.4 mg/ml, 0.1 mM NADH, pH meter, control increased about 0.9) was “about 0.4” and the “pH change for 5 minutes” value (20% ethanol in 2 mM KCl, SMP 1.4 mg/ml, 0.1 mM NADH, pH meter) was “almost no pH change”. For the same compound, the pH change rate (20% ethanol, the relatively strong toxic substance (FIG. 5)) was “lower than 0.02 per minute”.

With `OC[C@@H](O)[C@@H](O)[C@H](O)[C@@H](O)CO` [sorbitol] the “pH change compared with control” value (20% sorbitol in 2 mM KCl, SMP 1.4 mg/ml, 0.1 mM NADH, 5 minutes) was “almost identical to that of a control”.

— US20070231919A1, “Method for detecting the effect of a toxic substance using sub-mitochondrial particle” (SAMSUNG ELECTRONICS CO., LTD., priority 2005, published 2007)
